Data taken from US20180271873A1, “METHODS FOR TREATING VIRAL INFECTIONS” (priority 2015, published 2018).

Test system: GFP-expressing Zaire Ebolavirus Mayinga-GFP
Assay: microbe, parasite or virus in culture
Type: cell-based
Conditions: HeLa, read-out: Activity (Biological activity, EC50)

In the case of `Cc1cccc(/C=N/Nc2cc(N3CCOCC3)nc(OCc3ncccn3)n2)c1` [Compound 5, (E)-4-(6-(2-(3-Methylbenzylidene)hydrazinyl)-2-(pyrimidin-2-ylmethoxy)pyrimidin-4-yl)morpholine], the EC50 is reported as under 1 µM.
For `Cc1ccccc1/C=N/Nc1cc(N2CCOCC2)nc(OCCc2ccccn2)n1` [Compound 10, (E)-4-(6-(2-(2-Methylbenzylidene)hydrazinyl)-2-(2-(pyridin-2-yl)ethoxy)pyrimidin-4-yl)morpholine], the EC50 was under 1 µM.
For `Cc1cccc(/C=N/Nc2cc(N3CCOCC3)nc(OCCc3ccccn3)n2)c1` [Compound 11, (E)-4-(6-(2-(3-Methylbenzylidene)hydrazinyl)-2-(2-(pyridin-2-yl)ethoxy)pyrimidin-4-yl)morpholine], the EC50 was under 1 µM.
In the case of `C(=N\Nc1cc(N2CCOCC2)nc(OCCc2ccccn2)n1)/c1cncnc1` [Compound 12, (E)-4-(2-(2-(Pyridin-2-yl)ethoxy)-6-(2-(pyrimidin-5-ylmethylene)hydrazinyl)pyrimidin-4-yl)morpholine], the EC50 is reported as over 50 µM.
In the case of `Cc1cccc(/C=N/Nc2cc(N3CCOCC3)nc(OCC(C)c3ccccn3)n2)c1` (centres unmarked) [Compound 13, (E)-4-(6-(2-(3-Methylbenzylidene)hydrazinyl)-2-(2-(pyridin-2-yl)propoxy)pyrimidin-4-yl)morpholine], the EC50 is reported as under 1 µM.
For `Cc1cccc(/C=N/Nc2cc(N3CCOCC3)nc(OCCCc3ccccn3)n2)c1` [Compound 14, (E)-4-(6-(2-(3-Methylbenzylidene)hydrazinyl)-2-(3-(pyridin-2-yl)propoxy)pyrimidin-4-yl)morpholine], the EC50 was under 1 µM.
For `Cc1cccc(/C=N/Nc2cc(N3CCOCC3)nc(Oc3ccc4cccnc4c3)n2)c1` [Compound 15, (E)-4-(6-(2-(3-Methylbenzylidene)hydrazinyl)-2-(quinolin-7-yloxy)pyrimidin-4-yl)morpholine], the EC50 was under 1 µM.
`Cc1cccc(/C=N/Nc2cc(N3CCS(=O)(=O)CC3)nc(OCCc3ccccn3)n2)c1` [Compound 16] showed an EC50 of over 50 µM.
With `C(=N\Nc1cc(N2CCOCC2)nc(OCCc2ccccn2)n1)/c1ccncc1` [Compound 17, (E)-4-(2-(2-(Pyridin-2-yl)ethoxy)-6-(2-(pyridin-4-ylmethylene)hydrazinyl)pyrimidin-4-yl)morpholine] the EC50 was over 50 µM.
`Cc1cccc(/C=N/Nc2cc(N3CCOCC3)nc(NCc3ccccn3)n2)c1` [Compound 18, (E)-4-(2-(3-Methylbenzylidene)hydrazinyl)-6-morpholino-N-(pyridin-2-ylmethyl)pyrimidin-2-amine] showed an EC50 of under 1 µM.
Molecule `Cc1cc(/C=N/Nc2cc(N3CCOCC3)nc(OCCc3ccccn3)n2)ccn1` [Compound 19, (E)-4-(6-(2-((2-Methylpyridin-4-yl)methylene)hydrazinyl)-2-(2-(pyridin-2-yl)ethoxy)pyrimidin-4-yl)morpholine] has an EC50 of over 50 µM.
Work on `Cc1cccc(/C=N/Nc2cc(N3CCOCC3)nc(OCCc3ccccc3)n2)c1` [Compound 20, (E)-4-(6-(2-(3-Methylbenzylidene)hydrazinyl)-2-phenethoxypyrimidin-4-yl)morpholine] yielded an EC50 of 1 to 50 µM.
With `Cc1cccc(/C=N/Nc2cc(N3CCCCC3)nc(OCCc3ccccn3)n2)c1` [Compound 21, (E)-4-(2-(3-Methylbenzylidene)hydrazinyl)-6-(piperidin-1-yl)-2-(2-(pyridin-2-yl)ethoxy)pyrimidine] the EC50 was over 50 µM.
For `Cc1cccc(/C=N/Nc2cc(N3CC(C)OC(C)C3)nc(OCCc3ccccn3)n2)c1` (centres unmarked) [Compound 22, (E)-2,6-Dimethyl-4-(6-(2-(3-methylbenzylidene)hydrazinyl)-2-(2-(pyridin-2-yl)ethoxy)pyrimidin-4-yl)morpholine], the EC50 was 1 to 50 µM.
In the case of `Cc1cccc(/C=N/Nc2cc(N3CCOCC3)nc(OCCc3ncccn3)n2)c1` [Compound 23, (E)-4-(6-(2-(3-Methylbenzylidene)hydrazinyl)-2-(2-(pyrimidin-2-yl)ethoxy)pyrimidin-4-yl)morpholine], the EC50 is reported as under 1 µM.
Work on `CCCN(CCC)c1cc(N/N=C/c2cccc(C)c2)nc(OCCc2ncccn2)n1` [Compound 24, (E)-6-(2-(3-Methylbenzylidene)hydrazinyl)-N,N-dipropyl-2-(2-(pyrimidin-2-yl)ethoxy)pyrimidin-4-amine] yielded an EC50 of over 50 µM.
For `Cc1cccc(/C=N/Nc2cc(N3CCOCC3)nc(Oc3ccccn3)n2)c1` [Compound 25, (E)-4-(6-(2-(3-Methylbenzylidene)hydrazinyl)-2-(pyridin-2-yloxy)pyrimidin-4-yl)morpholine], the EC50 was under 1 µM.
Work on `Cc1cccc(/C=N/Nc2cc(N3CCSCC3)nc(OCCc3ccccn3)n2)c1` [Compound 26, (E)-4-(6-(2-(3-Methylbenzylidene)hydrazinyl)-2-(2-(pyridin-2-yl)ethoxy)pyrimidin-4-yl)thiomorpholine] yielded an EC50 of 1 to 50 µM.
`Cc1cccc(/C=N/Nc2cc(N3CCOCC3)nc(-c3cccc(O)c3)n2)c1` [Compound 27, (E)-3-(4-(2-(3-Methylbenzylidene)hydrazinyl)-6-morpholinopyrimidin-2-yl)phenol] gave an EC50 of 1 to 50 µM.
`Cc1cccc(/C=N/Nc2cc(N3CCOCC3)nc(OC(C)Cc3ccccn3)n2)c1` (centres unmarked) [Compound 28, (E)-4-(6-(2-(3-Methylbenzylidene)hydrazinyl)-2-(1-(pyridin-2-yl)propan-2-yloxy)pyrimidin-4-yl)morpholine] showed an EC50 of under 1 µM.
For `Cc1cccc(/C=N/Nc2cc(N3CCOCC3)nc(OCCc3ccncn3)n2)c1` [Compound 29, (E)-4-(6-(2-(3-Methylbenzylidene)hydrazinyl)-2-(2-(pyrimidin-4-yl)ethoxy)pyrimidin-4-yl)morpholine], the EC50 was 1 to 50 µM.
`Cc1cccc(/C=N/Nc2cc(N3CCOCC3)nc(-c3cccc(-c4ccccn4)c3)n2)c1` [Compound 30, (E)-4-(6-(2-(3-Methylbenzylidene)hydrazinyl)-2-(3-(pyridin-2-yl)phenyl)pyrimidin-4-yl)morpholine] was tested, and the EC50 was 1 to 50 µM.
Molecule `COc1c(N/N=C/c2cccc(C)c2)nc(OCCc2ccccn2)nc1N1CCOCC1` [Compound 31, (E)-4-(5-Methoxy-6-(2-(3-methylbenzylidene)hydrazinyl)-2-(2-(pyridin-2-yl)ethoxy)pyrimidin-4-yl)morpholine] has an EC50 of 1 to 50 µM.
For `Cc1cccc(/C=N/Nc2nc(OCCc3ccccn3)nc(N3CCOCC3)c2C)c1` [Compound 32, (E)-4-(5-Methyl-6-(2-(3-methylbenzylidene)hydrazinyl)-2-(2-(pyridin-2-yl)ethoxy)pyrimidin-4-yl)morpholine], the EC50 was 1 to 50 µM.
For `FC(F)(F)c1cccc(/C=N/Nc2cc(N3CCOCC3)nc(OCCc3ccccn3)n2)c1` [Compound 33, (E)-4-(2-(2-(Pyridin-2-yl)ethoxy)-6-(2-(3-(trifluoromethyl)benzylidene)hydrazinyl)pyrimidin-4-yl)morpholine], the EC50 was under 1 µM.
`C/C(=N\Nc1cc(N2CCOCC2)nc(OCCc2ccccn2)n1)c1cccc(C)c1` [Compound 34, (E)-4-(2-(2-(Pyridin-2-yl)ethoxy)-6-(2-(1-m-tolylethylidene)hydrazinyl)pyrimidin-4-yl)morpholine] was tested, and the EC50 was under 1 µM.
`Cc1cccc(/C=N/Nc2cc(N3CCCOCC3)nc(OCCc3ccccn3)n2)c1` [Compound 35, (E)-4-(6-(2-(3-Methylbenzylidene)hydrazinyl)-2-(2-(pyridin-2-yl)ethoxy)pyrimidin-4-yl)-1,4-oxazepane] was tested, and the EC50 was 1 to 50 µM.
Work on `Cc1cccc(/C=N/Nc2cc(N3CCOCC3)nc(OCC(C)(C)c3ccccc3)n2)c1` [Compound 36, (E)-4-(2-(2-Methyl-2-phenylpropoxy)-6-(2-(3-methylbenzylidene)hydrazinyl)pyrimidin-4-yl)morpholine] yielded an EC50 of 1 to 50 µM.
With `Cc1cccc(/C=N/N(C)c2cc(N3CCOCC3)nc(OCCc3ccccn3)n2)c1` [Compound 37, (E)-4-(6-(1-Methyl-2-(3-methylbenzylidene)hydrazinyl)-2-(2-(pyridin-2-yl)ethoxy)pyrimidin-4-yl)morpholine] the EC50 was 1 to 50 µM.
`Cc1cccc(/C=N/Nc2nc(OCCc3ccccn3)nc(N3CCOCC3)c2C#N)c1` [Compound 38, (E)-4-(2-(3-Methylbenzylidene)hydrazinyl)-6-morpholino-2-(2-(pyridin-2-yl)ethoxy)pyrimidine-5-carbonitrile] was tested, and the EC50 was over 50 µM.
`Cc1cccc(/C=N/Nc2nc(OCCc3ccccn3)nc(N3CCOCC3)c2Cl)c1` [Compound 39, (E)-4-(5-Chloro-6-(2-(3-methylbenzylidene)hydrazinyl)-2-(2-(pyridin-2-yl)ethoxy)pyrimidin-4-yl)morpholine] was tested, and the EC50 was over 50 µM.
Work on `Cc1cccc(/C=N/Nc2nc(OCCc3ccccn3)nc(N3CCOCC3)c2F)c1` [Compound 40, (E)-4-(5-Fluoro-6-(2-(3-methylbenzylidene)hydrazinyl)-2-(2-(pyridin-2-yl)ethoxy)pyrimidin-4-yl)morpholine] yielded an EC50 of over 50 µM.
In the case of `Cc1cccc(/C=N/Nc2cc(C3CCOCC3)nc(OCCc3ccccn3)n2)c1` [Compound 41, (E)-4-(2-(3-Methylbenzylidene)hydrazinyl)-2-(2-(pyridin-2-yl)ethoxy)-6-(tetrahydro-2H-pyran-4-yl)pyrimidine], the EC50 is reported as over 50 µM.
For `Cc1cccc(/C=N/Nc2cc(N3CCN(C)CC3)nc(OCCc3ccccn3)n2)c1` [Compound 42, (E)-4-(2-(3-Methylbenzylidene)hydrazinyl)-6-(4-methylpiperazin-1-yl)-2-(2-(pyridin-2-yl)ethoxy)pyrimidine], the EC50 was over 50 µM.
`Cc1cccc(/C=N/Nc2cc(N3CCOCC3)nc(OCCc3ccc(N)nc3)n2)c1` [Compound 43, (E)-5-(2-(4-(2-(3-Methylbenzylidene)hydrazinyl)-6-morpholinopyrimidin-2-yloxy)ethyl)pyridin-2-amine] was tested, and the EC50 was over 50 µM.
`Cc1cccc(/C=N/Nc2cc(N3CCOCC3)nc(OCCc3cnccn3)n2)c1` [Compound 44, (E)-4-(6-(2-(3-Methylbenzylidene)hydrazinyl)-2-(2-(pyrazin-2-yl)ethoxy)pyrimidin-4-yl)morpholine] was tested, and the EC50 was 1 to 50 µM.
In the case of `Cc1cccc(/C=N/Nc2cc(N3CCOCC3)nc(OCC(F)(F)c3ccccc3)n2)c1` [Compound 45, (E)-4-(2-(2,2-Difluoro-2-phenylethoxy)-6-(2-(3-methylbenzylidene)hydrazinyl)pyrimidin-4-yl)morpholine], the EC50 is reported as 1 to 50 µM.
Molecule `C(=N\Nc1cc(N2CCOCC2)nc(OCCc2ccccn2)n1)/c1ccccc1` [Compound 46, (E)-4-(6-(2-Benzylidenehydrazinyl)-2-(2-(pyridin-2-yl)ethoxy)pyrimidin-4-yl)morpholine] has an EC50 of 1 to 50 µM.
